Reference: PubChem BioAssay (NCI)
Where “and” joins values, the source holds several entries; their conditions need not be identical. Equal entries are not always repeated.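 Following 48 hours of exposure in 96-well plates, responses at five concentrations were used to interpolate endpoints linearly. GI50: concentration for 50% inhibition of growth. TGI: concentration producing complete growth inhibition.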

Tests used:
Assay in all cases: inhibition of tumour cell growth, NCI panel, 48 h; in the data active means GI50 below about 0.43 µM; inactive means the rest
OVCAR-5 ovarian = system: OVCAR-5 ovarian
UO-31 renal = system: UO-31 renal
U251 CNS = system: U251 CNS
MDA-MB-435 = system: MDA-MB-435
OVCAR-3 ovarian = system: OVCAR-3 ovarian
BT-549 breast = system: BT-549 breast
SF-539 CNS = system: SF-539 CNS
786-0 renal = system: 786-0 renal
SF-268 CNS = system: SF-268 CNS
MDA-N = system: MDA-N
TK-10 renal = system: TK-10 renal

C#CCOC(=O)C=[N+]=[N-]
> 10 µM: TGI (OVCAR-5 ovarian) | TGI (UO-31 renal) | TGI (U251 CNS) | TGI (MDA-MB-435) | TGI (OVCAR-3 ovarian) | TGI (BT-549 breast) | TGI (SF-539 CNS) | TGI (786-0 renal) | TGI (SF-268 CNS) | TGI (MDA-N)

CC(C)(C)OC(=O)C1C(=O)NC(=O)CC1C(OCc1ccccc1)C(OCc1ccccc1)C(COCc1ccccc1)OCc1ccccc1 (stereo not given)
> 100 µM and 30.3 µM: TGI (UO-31 renal)
inactive: GI50 (UO-31 renal) 42.6 µM and 10.5 µM | GI50 (U251 CNS) 68 µM and 14.4 µM | GI50 (MDA-MB-435) > 100 µM and 28.9 µM | GI50 (BT-549 breast) > 100 µM and 31.7 µM
> 100 µM: TGI (TK-10 renal) | TGI (OVCAR-5 ovarian) | TGI (U251 CNS) | TGI (MDA-MB-435) | TGI (BT-549 breast) | TGI (SF-539 CNS) | TGI (786-0 renal) | TGI (SF-268 CNS) | TGI (MDA-N)

CCN(CC)c1c(-c2c(OC(C)C)c(=O)c2=O)c(=O)n2ccsc2c1OC(C)=O
> 100 µM: TGI (TK-10 renal) | TGI (OVCAR-5 ovarian) | TGI (UO-31 renal) | TGI (U251 CNS) | TGI (MDA-MB-435) | TGI (OVCAR-3 ovarian) | TGI (BT-549 breast) | TGI (786-0 renal) | TGI (SF-268 CNS) | TGI (MDA-N)

CCOC(=O)c1nc2ccccc2nc1Nc1cc(OC)c(OC)c(OC)c1
> 100 µM: TGI (OVCAR-5 ovarian) | TGI (UO-31 renal) | TGI (U251 CNS) | TGI (MDA-MB-435) | TGI (OVCAR-3 ovarian) | TGI (BT-549 breast) | TGI (SF-539 CNS) | TGI (786-0 renal) | TGI (SF-268 CNS) | TGI (MDA-N)

c1ccc(C/C(=N\Nc2nc3ccccc3[nH]2)c2ccccn2)cc1
16.1 µM: TGI (BT-549 breast)
8.14 µM: TGI (OVCAR-5 ovarian)
11.1 µM: TGI (MDA-MB-435)
12 µM: TGI (SF-268 CNS)
1.88 µM: TGI (UO-31 renal)
0.741 µM: TGI (SF-539 CNS)
12.8 µM: TGI (MDA-N)
1.83 µM: TGI (TK-10 renal)
5.7 µM: TGI (786-0 renal)
12.3 µM: TGI (U251 CNS)

CCOc1cc2c(cc1OC)c[n+](C)c1c3cc(OC)c(OC)cc3ccc21
> 48.2 µM: TGI (U251 CNS)
> 85.2 µM: TGI (OVCAR-5 ovarian)
> 56.6 µM: TGI (786-0 renal)
> 100 µM: TGI (TK-10 renal) | TGI (UO-31 renal) | TGI (OVCAR-3 ovarian) | TGI (SF-539 CNS) | TGI (SF-268 CNS)

C[C@]12CCC(=O)C=C1CC[C@@H]1[C@@H]2CC[C@]2(C)C(=O)/C(=C/c3ccc([N+](=O)[O-])cc3)C[C@@H]12
> 100 µM: TGI (TK-10 renal) | TGI (OVCAR-5 ovarian) | TGI (UO-31 renal) | TGI (MDA-MB-435) | TGI (OVCAR-3 ovarian) | TGI (BT-549 breast) | TGI (SF-539 CNS) | TGI (786-0 renal) | TGI (SF-268 CNS) | TGI (MDA-N)

CC(=O)Oc1ccc2c(c1)O/C(=C\c1ccc(N(C)C)cc1)C2=O
> 100 µM: TGI (TK-10 renal) | TGI (UO-31 renal) | TGI (U251 CNS) | TGI (MDA-MB-435) | TGI (BT-549 breast) | TGI (SF-539 CNS) | TGI (786-0 renal) | TGI (SF-268 CNS) | TGI (MDA-N)

Cc1cc2c(cc1Cl)SSc1cc(Cl)c(C)cc1S(=O)(=O)Nc1nc(N)nn1C(O)n1nc(N)nc1NS2(=O)=O
> 10 µM: TGI (TK-10 renal) | TGI (OVCAR-5 ovarian) | TGI (UO-31 renal) | TGI (U251 CNS) | TGI (OVCAR-3 ovarian) | TGI (BT-549 breast) | TGI (SF-539 CNS) | TGI (786-0 renal) | TGI (SF-268 CNS) | TGI (MDA-N)

C[C@]12CC[C@H]3[C@@H](CC=C4C[C@@H](N5CCCC5)CC[C@@]43C)[C@@H]1C/C(=C\c1ccc([N+](=O)[O-])cc1)[C@@H]2O
28.4 µM: TGI (UO-31 renal)
31.5 µM: TGI (OVCAR-3 ovarian)
25.2 µM: TGI (U251 CNS)
26.7 µM: TGI (BT-549 breast)
35.8 µM: TGI (TK-10 renal)
40.1 µM: TGI (SF-268 CNS)
31 µM: TGI (MDA-MB-435)
32.4 µM: TGI (SF-539 CNS)
17.9 µM: TGI (786-0 renal)
